Laboratory results published in PubChem BioAssay (NCI).
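A five-concentration, 48-hour dose response in 96-well plates underlies each endpoint, interpolated linearly between surrounding concentrations. At the GI50, growth is halved. Definition used: TGI = concentration required for complete inhibition of growth.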

Legend:
Assay in all cases: NCI anticancer screen, dose series, 48 h
CCRF-CEM leukemia = test system: CCRF-CEM leukemia
HCC-2998 colon = test system: HCC-2998 colon
HCT-116 colon = test system: HCT-116 colon
HCT-15 colon = test system: HCT-15 colon
IGROV1 ovarian = test system: IGROV1 ovarian
OVCAR-4 ovarian = test system: OVCAR-4 ovarian
SK-OV-3 ovarian = test system: SK-OV-3 ovarian
SNB-75 CNS = test system: SNB-75 CNS
SW-620 colon = test system: SW-620 colon
UO-31 renal = test system: UO-31 renal

Row | Structure (SMILES) | GI50 (CCRF-CEM leukemia) [µM] | TGI (CCRF-CEM leukemia) [µM] | GI50 (HCC-2998 colon) [µM] | TGI (HCC-2998 colon) [µM] | GI50 (HCT-116 colon) [µM] | TGI (HCT-116 colon) [µM] | GI50 (HCT-15 colon) [µM] | TGI (HCT-15 colon) [µM] | GI50 (IGROV1 ovarian) [µM] | TGI (IGROV1 ovarian) [µM] | GI50 (OVCAR-4 ovarian) [µM] | TGI (OVCAR-4 ovarian) [µM] | GI50 (SK-OV-3 ovarian) [µM] | TGI (SK-OV-3 ovarian) [µM] | GI50 (SNB-75 CNS) [µM] | TGI (SNB-75 CNS) [µM] | GI50 (SW-620 colon) [µM] | TGI (SW-620 colon) [µM] | GI50 (UO-31 renal) [µM] | TGI (UO-31 renal) [µM]
1 | Nc1c(C(=O)c2ccccc2)sc2nc(-c3cccs3)ccc12 | 0.524 | > 100 | 0.468 | 4.25 | 0.0533 | 1.96 | 0.0552 | 10.4 | 1.21 | 18.8 | 0.902 | 6.72 | 0.389 | 18.4 | 0.187 | 1.42 | 0.0734 | 11.1 | 1.13 | 15.2
2 | COc1cc2c(cc1C)NC(=O)/C2=C\c1cc(OC)c(OC)c(OC)c1 | 8.18 | 32.1 | > 100 | > 100 | 33 | > 100 | > 100 | > 100 | 72.1 | > 100 | > 100 | > 100 | 83.3 | > 100 | 12.9 | 31.4 | > 100 | > 100 | > 100 | > 100
3 | COc1cc(-c2cnn(C)c2)ccc1Nc1ncc2ccnc(N[C@@H](C)C(C)(C)C)c2n1 | > 100 | > 100 | > 100 | > 100 | 0.467 | > 100 | 0.651 | > 100 | > 100 | > 100 | > 46.8 | > 100 | > 68.1 | > 100 | 3.26 | > 100 | 1.46 | > 100 | > 100 | > 100
4 | COc1cc(/C=C/c2cc(C(F)(F)F)[nH]c(=O)n2)ccc1OCc1ccccc1F | 3.94 | 26.3 | 15.5 | 30.1 | 7.12 | 19.6 | 5.22 | 28.3 | 12.4 | 42 | 7.6 | 67.9 | 16.3 | 50.8 | 21 | 56.7 | 7.97 | 28.3 | 13 | 29.4
5 | CN1CCN(Cc2ccc(NC(=O)c3cncc(C#Cc4cnc(N)c5ccc(F)cc45)c3)cc2C(F)(F)F)CC1 | 0.865 | 16.4 | 1.7 | 5.98 | 1 | 5.04 | 1.03 | 4.62 | 0.677 | 4.08 | 0.667 | 4.23 | 1.03 | 3.81 | 1.3 | 5.71 | 1.3 | 4.83 | 1.15 | 4.51
6 | Nc1nc(-c2cccc([N+](=O)[O-])c2)c(Br)c(=O)[nH]1 |  | > 100 |  | > 100 |  | > 100 |  | > 100 |  | > 100 |  | > 100 |  | > 100 |  | > 100 |  | > 100 |  | > 100
7 | CCCCCCNC(=O)C1=C(C)NC(C)=C(C(=O)NCCCCCC)C1 |  | > 100 |  | > 100 |  | > 100 |  | > 100 |  | > 100 |  | > 100 |  | > 100 |  | > 100 |  | > 100 |  | > 100
8 | C=CCCCCCCCCCCCC1CCC(CC)N1 (stereo not given) |  | 29 |  | 8.04 |  | 20.1 |  | 12.9 |  | 25.9 |  | 21.3 |  | 31.6 |  | 33.9 |  | 24.6 |  | 23.8
9 | O=[N+]([O-])c1ccc2[nH]cc(-c3c4ccsc4cc4[nH]c5ccc([N+](=O)[O-])cc5c34)c2c1 | 1.05 | 23.3 | 1.88 | 6.27 | 0.865 | 5.37 | 0.735 | 9.68 | 1.65 | 8.52 | 1.8 | 9.38 | 1.25 | 7.21 | 0.618 | 3.03 | 1.07 | 8.37 | 0.827 | 5.14
10 | COc1ccc(-c2c(C3=NCCN3)nnn2-c2ccccc2)cc1 |  | > 100 |  | > 100 |  | > 100 |  | > 100 |  | > 100 |  | > 100 |  | > 100 |  | > 100 |  | > 100 |  | > 100
11 | O=C(Nc1ccccc1C(F)(F)F)c1cccc(NC2=C(Cl)C(=O)N(Cc3ccccc3)C2=O)c1 | 10.4 | 31.7 | 21.5 | 50.8 | 14.9 | > 55.1 | 3.8 | > 24.5 | 0.985 | 18.8 | 45.1 | > 100 | 38.9 | > 100 | 30.7 | > 57.6 | 22 | > 100 | 19.8 | 97.8
12 | Cc1ccc(C(=O)c2oc3ccc4c(C)cc(=O)oc4c3c2C)cc1 | > 100 | > 100 | 24 | > 100 | 43.8 | > 100 | 0.585 | > 100 | 13.8 | > 100 | 23.6 | 75.5 | 18 | > 100 | 4.19 | 39.4 | 8.56 | > 100 | 11.4 | > 100
13 | COC(=O)c1c(-c2ccccc2)cc2c3cc(-c4ccccc4)c(C(=O)OC)n3c3ccccc3n12 |  | > 100 |  | > 100 |  | > 100 |  | > 100 |  | > 100 |  | > 31.6 |  | > 100 |  | 91.6 |  | > 100 |  | > 100
14 | COc1ccc2c(c1)C(=O)CC(N)C2 (stereo not given) |  | > 100 |  | > 100 |  | > 100 |  | > 100 |  | > 100 |  | > 100 |  | > 100 |  | > 100 |  | > 100 |  | > 100
15 | CN1CC(c2ccccc2)N(CCCCN2CC(c3ccccc3)N(C)CC2c2ccccc2)CC1c1ccccc1 (stereo not given) |  | > 100 |  | > 100 |  | 24.2 |  | > 100 |  | > 100 |  | > 100 |  | > 100 |  | > 100 |  | > 100 |  | > 100
16 | COc1cc2nc(-c3ccc(C(F)(F)F)cc3)cc(OCCCN3CCOCC3)c2cc1OC | 2.79 | 19.3 | 1.41 | 5.57 | 0.583 | 13.5 | 0.52 | 5.57 | 0.83 | 21.9 | 10.3 | 23.2 | 5.04 | 22.4 | 2.46 | 9.51 | 3.51 | 15.4 | 1.77 | 7.3
17 | COc1cc(-c2cc(=O)c3cc4c(cc3[nH]2)OCO4)cc(OC)c1OC |  | > 100 |  | > 100 | 73.7 | > 100 |  | > 100 |  | > 100 |  | > 100 |  | > 100 |  | > 100 |  | > 100 |  | > 100
18 | CC(C)=CC(C(O)c1ccccc1)S(=O)(=O)c1nccn1C (stereo not given) |  | > 100 |  | > 100 |  | > 100 |  | > 100 |  | > 100 |  | > 100 |  | > 100 |  | > 100 |  | > 100 |  | > 100
19 | NC(N)=N/N=C(/c1nc2ccc([N+](=O)[O-])cc2[nH]c1=O)C(O)c1ccco1 (stereo not given) |  | > 100 |  | > 100 |  | > 100 |  | > 100 |  | > 100 |  | > 100 |  | > 100 |  | > 100 |  | > 100 |  | > 100
20 | CCOC(=O)[C@@H](C)C[C@H](Cc1ccccc1)NC(=O)c1csc([C@@H](C[C@H](C(C)C)N(C)C(=O)[C@@H](NC(=O)[C@H]2C[C@H](O[Si](C)(C)C(C)(C)C)CCN2C)C(C)C)OC(C)=O)n1 | 0.298 | > 6.87 | 0.182 | 0.69 | 0.246 | 1.63 | 0.427 | > 5.02 | 0.272 | > 8.33 | 0.674 | > 8.33 | 0.198 | > 8.33 | 0.205 | 0.76 | 0.319 | > 8.33 | 0.44 | > 8.33
21 | Oc1ccc(N=Nc2ccc(Cl)cc2)cc1 |  | > 100 |  | 29.8 |  | 29.4 |  | 32.8 |  | 29.3 |  | 61 |  | 47.3 |  | 46.1 |  | > 100 |  | 27.7
22 | O=C1C(Br)=C[C@H]2C3C=CC(Br)(C3=O)[C@@H]12 (stereo not given in full) |  | 13.7 |  | 26.2 |  | 22.8 |  | 24.6 |  | 29.4 |  | 29.4 |  | > 100 |  | 92.8 |  | 21.1 |  | 31.1
23 | COc1cc2c(cc1OCc1ccccc1)N=C[C@@H]1C/C(=C/C(=O)NCCCN3C(=O)c4cccc5cccc(c45)C3=O)CN1C2=O | 0.0548 | > 100 | 0.142 | 1.26 | 0.538 | > 100 | 3.96 | > 100 | 0.468 |  | 2.63 | > 100 | 8.35 | 33.5 | 0.877 | 3.66 | 0.284 | 15.5 | 2.68 | > 20.7
24 | COc1cc(OC2OC(C)C(O)C(O)C2O)cc2oc(-c3ccc(O)cc3)c(CC=C(C)C)c(=O)c12 (stereo not given) | 5.97 | 31.8 | 16.6 | 40.8 | 8.15 | 20.8 | 16.8 | 52.1 | 12.9 | 51.9 | 2.06 | 18.9 | 20.8 | 45.4 | 1.69 | 17.5 | 19.7 | 44 | 16.2 | 64.6
25 | C=CC(=O)N1CCCC(n2nc(-c3ccc(Oc4ccccc4)cc3)c3c(N)ncnc32)C1 (stereo not given) | 8.02 | 42.6 | 16 | 30.8 | 11.9 | 26.2 | 12.6 | 28.9 | 0.643 | 14.6 | 7.12 | 21.2 | 0.0216 | 15.8 | 3.55 | 14.2 | 16.1 | 33.4 | 1.4 | 13.5
